Test [1] deals with Leukocyte tyrosine kinase receptor (Homo sapiens, UniProt P29376). Description: Selectivity interaction (Ambit KINOMEscan and KiNATiv profiling in Jurkat cells) EUB0000090b LTK. Conditions: at 1 µM. Format: cell-based.
In test [2] the target is T1, Inhibitor of nuclear factor kappa-B kinase subunit beta (Homo sapiens) (UniProt O14920).
T1 sequence (whole entry): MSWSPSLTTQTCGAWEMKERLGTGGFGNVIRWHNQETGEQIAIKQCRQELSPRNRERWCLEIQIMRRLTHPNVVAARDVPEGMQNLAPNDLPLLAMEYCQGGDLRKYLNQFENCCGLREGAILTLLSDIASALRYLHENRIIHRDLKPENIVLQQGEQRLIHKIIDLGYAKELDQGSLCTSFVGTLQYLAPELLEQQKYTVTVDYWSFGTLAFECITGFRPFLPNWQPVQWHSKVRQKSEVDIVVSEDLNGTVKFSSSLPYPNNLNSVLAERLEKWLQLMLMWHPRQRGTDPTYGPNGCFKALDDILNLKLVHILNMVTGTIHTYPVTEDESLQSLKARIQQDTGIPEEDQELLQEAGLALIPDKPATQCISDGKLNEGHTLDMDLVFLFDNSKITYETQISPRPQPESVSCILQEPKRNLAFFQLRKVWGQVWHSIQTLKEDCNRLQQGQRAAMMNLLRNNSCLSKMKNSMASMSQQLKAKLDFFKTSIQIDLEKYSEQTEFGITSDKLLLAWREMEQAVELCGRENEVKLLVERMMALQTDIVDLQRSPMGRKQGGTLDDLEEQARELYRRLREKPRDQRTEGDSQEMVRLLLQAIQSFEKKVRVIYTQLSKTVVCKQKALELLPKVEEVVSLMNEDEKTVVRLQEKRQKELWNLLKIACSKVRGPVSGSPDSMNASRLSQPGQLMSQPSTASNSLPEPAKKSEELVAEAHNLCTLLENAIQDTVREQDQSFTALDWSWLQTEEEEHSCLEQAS
Briefly: Selectivity interaction (KinomeScan (DiscoverX)) EUB0000666a IKBKB. To be noted: at 10 µM.

The target of test [3] is Calcium/calmodulin-dependent protein kinase type 1 (Homo sapiens) (UniProt Q14012). Briefly: Selectivity interaction (ActivX KiNativ screen (kinase selectivity in THP-1 cell lysates)) EUB0000639a CAMK1. To be noted: lysate, at 1 µM. Format: subcellular.
Sequence of Calcium/calmodulin-dependent protein kinase type 1 (Homo sapiens) (Q14012 whole entry, looked up): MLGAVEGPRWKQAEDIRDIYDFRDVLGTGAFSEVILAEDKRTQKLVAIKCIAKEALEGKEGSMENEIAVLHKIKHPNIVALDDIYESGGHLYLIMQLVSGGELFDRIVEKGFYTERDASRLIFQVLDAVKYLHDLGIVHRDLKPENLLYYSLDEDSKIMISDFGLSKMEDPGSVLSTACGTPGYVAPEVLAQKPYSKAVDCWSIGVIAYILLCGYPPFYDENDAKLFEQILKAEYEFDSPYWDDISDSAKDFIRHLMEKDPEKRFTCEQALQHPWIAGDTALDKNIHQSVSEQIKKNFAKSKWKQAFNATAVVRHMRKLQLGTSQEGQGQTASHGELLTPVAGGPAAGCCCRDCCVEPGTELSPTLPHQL
The target in test [4] is T2, Serine/threonine-protein kinase RIO3 (Homo sapiens) (UniProt O14730).
T2 sequence (whole entry): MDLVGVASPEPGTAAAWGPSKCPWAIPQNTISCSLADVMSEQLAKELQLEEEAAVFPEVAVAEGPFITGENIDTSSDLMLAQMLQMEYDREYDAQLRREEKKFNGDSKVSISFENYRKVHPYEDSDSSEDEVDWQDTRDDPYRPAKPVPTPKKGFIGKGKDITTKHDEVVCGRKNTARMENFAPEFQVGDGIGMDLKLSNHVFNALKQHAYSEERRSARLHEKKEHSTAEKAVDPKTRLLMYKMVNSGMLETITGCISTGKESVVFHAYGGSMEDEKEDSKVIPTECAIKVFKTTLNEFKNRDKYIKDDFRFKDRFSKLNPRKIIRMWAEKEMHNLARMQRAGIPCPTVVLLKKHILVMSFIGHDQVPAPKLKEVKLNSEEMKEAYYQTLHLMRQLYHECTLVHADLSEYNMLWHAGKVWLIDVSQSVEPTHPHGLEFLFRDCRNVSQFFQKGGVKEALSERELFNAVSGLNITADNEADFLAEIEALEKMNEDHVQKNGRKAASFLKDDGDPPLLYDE
Conditions: at 10 µM.

The target of test [5] is STE20/SPS1-related proline-alanine-rich protein kinase (Homo sapiens) (UniProt Q9UEW8). Description: Selectivity interaction (KinomeScan (DiscoverX)) EUB0001049a STK39. To be noted: at 1 µM.
Test [6] addresses T3, Serine/threonine-protein kinase PLK4 (Homo sapiens) (UniProt O00444).
T3 sequence (whole entry): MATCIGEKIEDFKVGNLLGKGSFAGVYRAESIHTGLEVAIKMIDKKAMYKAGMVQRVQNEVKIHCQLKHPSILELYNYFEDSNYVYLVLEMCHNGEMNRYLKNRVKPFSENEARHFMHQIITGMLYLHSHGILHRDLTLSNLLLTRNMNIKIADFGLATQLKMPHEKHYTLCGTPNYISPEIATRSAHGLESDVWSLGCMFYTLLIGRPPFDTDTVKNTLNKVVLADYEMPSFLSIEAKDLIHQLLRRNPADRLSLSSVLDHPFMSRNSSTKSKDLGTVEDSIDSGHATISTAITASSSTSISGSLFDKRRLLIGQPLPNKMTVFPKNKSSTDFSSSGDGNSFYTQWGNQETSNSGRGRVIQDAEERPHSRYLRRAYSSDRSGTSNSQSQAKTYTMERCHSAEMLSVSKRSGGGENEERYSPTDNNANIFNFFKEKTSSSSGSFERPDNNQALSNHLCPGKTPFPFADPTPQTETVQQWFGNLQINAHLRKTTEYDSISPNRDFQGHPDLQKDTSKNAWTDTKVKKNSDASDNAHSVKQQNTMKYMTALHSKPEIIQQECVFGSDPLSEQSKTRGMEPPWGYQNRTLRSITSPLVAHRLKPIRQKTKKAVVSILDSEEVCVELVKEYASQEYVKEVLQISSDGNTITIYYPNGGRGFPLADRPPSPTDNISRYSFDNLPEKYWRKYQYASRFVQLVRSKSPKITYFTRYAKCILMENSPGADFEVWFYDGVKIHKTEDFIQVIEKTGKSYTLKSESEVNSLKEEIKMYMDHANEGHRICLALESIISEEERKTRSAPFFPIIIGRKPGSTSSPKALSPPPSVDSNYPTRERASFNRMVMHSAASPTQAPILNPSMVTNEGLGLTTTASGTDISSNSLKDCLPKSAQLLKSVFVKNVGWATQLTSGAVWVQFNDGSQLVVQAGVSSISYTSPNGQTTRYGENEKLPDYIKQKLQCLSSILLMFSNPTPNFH
Description: Selectivity interaction (KinomeScan (DiscoverX)) EUB0000595a PLK4. To be noted: at 10 µM.

Sequence of Leukocyte tyrosine kinase receptor (P29376 whole entry): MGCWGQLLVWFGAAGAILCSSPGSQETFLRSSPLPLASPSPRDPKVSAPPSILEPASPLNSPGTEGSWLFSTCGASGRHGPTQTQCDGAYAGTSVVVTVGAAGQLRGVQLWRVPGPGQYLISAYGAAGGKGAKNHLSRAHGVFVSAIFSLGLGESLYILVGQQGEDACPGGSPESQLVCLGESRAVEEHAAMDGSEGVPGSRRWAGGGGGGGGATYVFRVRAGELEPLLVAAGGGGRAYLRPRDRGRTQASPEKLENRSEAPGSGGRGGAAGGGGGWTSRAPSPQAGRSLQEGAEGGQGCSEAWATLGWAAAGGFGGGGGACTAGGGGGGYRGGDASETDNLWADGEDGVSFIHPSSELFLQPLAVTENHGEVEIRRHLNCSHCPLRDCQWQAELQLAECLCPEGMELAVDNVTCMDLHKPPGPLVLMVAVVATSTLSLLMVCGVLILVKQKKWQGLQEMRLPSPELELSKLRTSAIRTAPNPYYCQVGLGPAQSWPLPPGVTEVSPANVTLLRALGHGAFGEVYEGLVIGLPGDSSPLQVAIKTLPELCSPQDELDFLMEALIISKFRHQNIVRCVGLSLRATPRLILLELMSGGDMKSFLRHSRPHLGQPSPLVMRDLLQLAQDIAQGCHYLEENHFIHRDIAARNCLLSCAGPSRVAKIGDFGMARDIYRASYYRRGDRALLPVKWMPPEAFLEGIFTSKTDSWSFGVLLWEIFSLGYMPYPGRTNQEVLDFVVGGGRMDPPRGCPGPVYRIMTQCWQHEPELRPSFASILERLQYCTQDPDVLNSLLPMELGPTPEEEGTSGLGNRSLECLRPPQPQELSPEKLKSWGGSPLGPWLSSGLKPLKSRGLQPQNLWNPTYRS

On to `CN(C)C/C=C/C(=O)Nc1ccc(C(=O)N2CCCC(Nc3ncc(Cl)c(-c4c[nH]c5ccccc45)n3)C2)cc1` (stereo unspecified), for which the % of control in test [1] was found to be 84%.

In the case of `O=C(NOC[C@H](O)CO)c1ccc(F)c(F)c1Nc1ccc(I)cc1F`, the % of control in test [2] was 79%.

Turning to `CC[C@@H]1[C@H](F)C(=O)N[C@@H]1COc1nccc2cc(C(N)=O)c(OC)cc12` [ZIMLOVISERTIB], in test [3], the % of inhibition was -14.5%.

Take `CCN(CC)CCCCNc1ncc2cc(-c3cc(OC)cc(OC)c3)c(NC(=O)NC(C)(C)C)nc2n1`: the % of control in test [4] came to 100%.

For `COc1cc(Nc2nc(C)cc(-c3cnn4nc(OC)ccc34)n2)cc(C(F)(F)F)c1`, the % of control in test [5] turned out to be 64%.

Consider `COCC(=O)NC/C=C/c1ccc2ncnc(Nc3ccc(Oc4ccc(C)nc4)c(C)c3)c2c1` [CP-724714], for which the % of control in test [6] stood at 74%.

(Values after ChEMBL document CHEMBL5465560, “Selectivity Literature for EUbOPEN Chemogenomic Library” (2024).)
